Measured values taken from US20230174484A1, “ANTAGONISTS OF GPR39 PROTEIN” (Oregon Health & Science University, priority 2020, published 2023).

Molecular target: T1, human GPR39 receptor (Homo sapiens, UniProt O43194)
T1 construct: PC3 Cells, Expressing the Endogenous Human GPR39 Receptor; endogenous in cells; host or cells: PC3 (human prostate adenocarcinoma) cells
T1 sequence (O43194 1-453): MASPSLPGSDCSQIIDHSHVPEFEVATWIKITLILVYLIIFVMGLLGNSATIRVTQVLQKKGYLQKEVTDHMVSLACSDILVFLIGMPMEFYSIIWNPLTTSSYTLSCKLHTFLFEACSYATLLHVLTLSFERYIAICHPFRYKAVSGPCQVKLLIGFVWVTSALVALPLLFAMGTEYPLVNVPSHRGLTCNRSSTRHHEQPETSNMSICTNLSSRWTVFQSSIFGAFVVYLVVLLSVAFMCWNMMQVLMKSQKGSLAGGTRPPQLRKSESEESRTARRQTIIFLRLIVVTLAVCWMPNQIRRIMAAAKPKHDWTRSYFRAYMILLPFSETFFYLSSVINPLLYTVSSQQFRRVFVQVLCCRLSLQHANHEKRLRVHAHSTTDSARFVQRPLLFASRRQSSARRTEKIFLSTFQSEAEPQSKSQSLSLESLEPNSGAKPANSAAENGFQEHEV
Assay: Measurement of intracellular calcium response in PC3 cells (FLIPR), antagonism of the C3 agonist response
Assay type: cell-based
Settings: functional pKi (modified Cheng-Prusoff), inhibition of the C3 (TC-G 1008) response at EC90, 30 μM ZnCl2, read-out: fpKi activity
Method: Human prostate adenocarcinoma (PC3) cells endogenously expressing human GPR39 receptor were seeded into black walls clear-base 384-well plates at a density of 7,500 cells per well in DM EM (Low Glucose) supplemented with 10% heat-inactivated foetal bovine serum and 1% of Pen/Strep and grown overnight at 37° C., 5% CO2. After washing with assay buffer (20 mM HEPES, 137 mM NaCI, 5.4 mM KCI, 10 mM glucose, 0.8 mM MgSO4, 1.3 mM CaCl2, 0.3 mM Na2HPO4, 0.4 mM KH2PO4 4.2 mM NaHCO3, pH 7.4), cells were incubated with Calcium-6 probe (Molecular Devices) at 37° C. for 2h and then equilibrated at RT for 30 minutes on metal block. The fluorescence was measured in real time by Fluorometric Imaging Plate Reader (FLIPR TETRA, Molecular Devices) (excitation wavelength at 470-495 nm, emission wavelength at 515-575 nm).
Compounds of invention were serially diluted in neat DMSO at 1000 fold concentrations and plated into 384-well plates and then 200-fold diluted in assay buffer containing 150 uM ZnCl2 (30 μM final concentration) and […].
Fluorescence was monitored throughout the run assay. The peak of Ca2+stimulation (baseline subtracted) was expressed as percentage of the maximal inhibition of the EC90 C3 response and was plotted versus the concentration of test compound. Curve fitting and IC50 estimations are carried out using a four-parameter logistic model using XLfit Software.
The potency of compounds was reported as functional pKi (—Log10Ki) obtained using the modified Cheng-Prusoff relationship (Cheng, Y., Prusoff, W. H. 1973.)
fKi =IC50/(1+[L]/EC50) where IC50 is the concentration of antagonist required for 50% inhibition of the maximum response, [L] is the concentration of the agonist used (EC90) and EC50 is the concentration of agonist need to induced 50% of the maximum response (obtained in each experimental plate).
An fpKi less than 5.2 is reported as “+/±”. An fpKi ranging from 5.2 to 5.9 is reported as “+”. An fpKi from 6.0 to 6.5 is reported as “++”. An fpKi from 6.6 to 7.2 is reported as “+++”. An fpKi equal to or greater than 7.3 is reported as “++++”.

Row | Ki [nM] | Structure (SMILES)
1 | 1260 to 6310 | CN1CCN(C(=O)c2ccc(NC(=O)C3CC3)cc2N2CCCC2)C(c2cccs2)C1 (single isomer, unassigned) [Example 86a, N-[4-(4-methyl-2-thiophen-2-ylpiperazine-1-carbonyl)-3-pyrrolidin-1-ylphenyl]cyclopropanecarboxamide]
2 | 316 to 1000 | CC1CCN(c2cc(NC(=O)C3CC3)ccc2C(=O)N2CCN(C)CC2c2ccccc2)C1 (single isomer, unassigned) [Example 64d, (2S, 3R) or (2R, 3S) or (2R, 3R) or (2S, 3S) N-[4-(4-methyl-2-phenylpiperazine-1-carbonyl)-3-(3-methylpyrrolidin-1-yl)phenyl] cyclopropanecarboxamide]
3 | 316 to 1000 | O=C(Nc1ccc(C(=O)N2CCC(F)CC2)c(N2CCCC2)c1)C1CC1 [Example 168, N-[4-(4-fluoropiperidine-1-carbonyl)-3-pyrrolidin-1-ylphenyl]cyclopropanecarboxamide]
4 | 63.1 to 251 | O=C(Nc1ccc(C(=O)N2CCCCC2)c(N2CCCCCC2)c1)C1CC1 [Example 35, N-(3-(azepan-1-yl)-4-(piperidine-1-carbonyl)phenyl)cyclopropanecarboxamide]
5 | 1260 to 6310 | CN1CCN(C(=O)c2ccc(NC(=O)C3CC3)cc2N2CCCCCC2)C(CO)C1 (stereo not shown) [Example 77, N-[3-(azepan-1-yl)-4-[2-(hydroxymethyl)-4-methylpiperazine-1-carbonyl]phenyl]cyclopropanecarboxamide]
6 | 316 to 1000 | CCCN1CCN(C(=O)c2ccc(NC(=O)C3CC3)cc2N2CCc3ccccc3C2)CC1 [Example 18, N-(3-(3,4-dihydroisoquinolin-2(1H)-yl)-4-(4-propylpiperazine-1-carbonyl)phenyl)cyclopropane carboxamide]
7 | 63.1 to 251 | O=C(Nc1ccc(C(=O)N2CCS(=O)(=O)CC2)c(N2CCC(F)(F)C2)c1)C1CC1 [Example 184, N-[3-(3,3-difluoropyrrolidin-1-yl)-4-(1,1-dioxo-1,4-thiazinane-4-carbonyl)phenyl]cyclopropanecarboxamide]
8 | 63.1 to 251 | CC1CC(C)CN(c2cc(NC(=O)C3CC3)ccc2-c2nnc(Sc3ccccc3)n2C)C1 (stereo not shown) [Example 114c, N-[3-(3,5-dimethylpiperidin-1-yl)-4-(4-methyl-5-phenylsulfanyl-1,2,4-triazol-3-yl)phenyl]cyclopropanecarboxamide]
9 | 316 to 1000 | Cc1nnc(-c2ccc(C(=O)N3CCN(C)CC3c3ccccc3)c(N3CCC(C(F)(F)F)C3)c2)[nH]1 (single isomer, unassigned) [Example 177d, (2S, 3R) or (2R, 3S) or (2R, 3R) or (2S, 3S) (4-methyl-2-phenylpiperazin-1-yl)-[4-(5-methyl-4H-1,2,4-triazol-3-yl)-2-[3-(trifluoromethyl)pyrrolidin-1-yl]phenyl]methanone]
10 | 316 to 1000 | Cc1nnc(-c2ccc(C(=O)N3CCN(C)CC3c3ccccc3)c(N3CCC(C(F)(F)F)C3)c2)[nH]1 (single isomer, unassigned) [Example 177b, (2S, 3R) or (2R, 3S) or (2R, 3R) or (2S, 3S) (4-methyl-2-phenylpiperazin-1-yl)-[4-(5-methyl-4H-1,2,4-triazol-3-yl)-2-[3-(trifluoromethyl)pyrrolidin-1-yl]phenyl]methanone]
11 | 63.1 to 251 | CN1CCN(C(=O)c2ccc(NC(=O)C3CC3)cc2N2CCCCCC2)C(Cc2ccccc2)C1 (stereo not shown) [Example 76, N-[3-(azepan-1-yl)-4-(2-benzyl-4-methylpiperazine-1-carbonyl)phenyl]Cyclopropanecarboxamide]
12 | ≤ 50.1 | O=C(Nc1ccc(C(=O)N2CCN(Cc3ccon3)CC2c2ccccc2)c(N2CCCCCC2)c1)C1CC1 (stereo not shown) [Example 82, N-[3-(azepan-1-yl)-4-[4-(1,2-oxazol-3-ylmethyl)-2-phenylpiperazine-1-carbonyl]phenyl]Cyclopropanecarboxamide]
13 | 63.1 to 251 | CN1CCN(C(=O)c2ccc(-c3nnc(C4CC4)[nH]3)cc2N2CCCC2)C(c2ccccc2)C1 (single isomer, unassigned) [Example 151a, (2R or 2S) [4-(5-cyclopropyl-4H-1,2,4-triazol-3-yl)-2-pyrrolidin-1-ylphenyl]-(4-methyl-2-phenylpiperazin-1-yl)methanone]
14 | ≤ 50.1 | O=C(Nc1ccc(C(=O)N2CCS(=O)(=O)CC2)c(N2CCC3(CCC3)C2)n1)C1CC1 [Example 143, N-[6-(6-azaspiro[3.4]octan-6-yl)-5-(1,1-dioxo-1,4-thiazinane-4-carbonyl)pyridin-2-yl]cyclopropanecarboxamide]
15 | ≤ 50.1 | O=C(Nc1ccc(C(=O)N2CCS(=O)(=O)CC2)c(N2CCC3(CCC3)C2)c1)C1CC1 [Example 65, N-[3-(6-azaspiro[3.4]octan-6-yl)-4-(1,1-dioxo-1,4-thiazinane-4-carbonyl)phenyl]cyclopropanecarboxamide]
16 | 316 to 1000 | CN1CCN(C(=O)c2ccc(NC(=O)C3CC3)cc2N2CCC(C(F)(F)F)C2)C(c2ccccc2)C1 (single isomer, unassigned) [Example 199d, (2S, 3R) or (2R, 3S) or (2R, 3R) or (2S, 3S) N-[4-(4-methyl-2-phenylpiperazine-1-carbonyl)-3-[3-(trifluoromethyl)pyrrolidin-1-yl]phenyl]cyclopropanecarboxamide]
17 | 63.1 to 251 | CN1CCN(C(=O)c2ccc(NC(=O)C3CC3)cc2N2CCCCC2)C(c2ccccc2)C1 (single isomer, unassigned) [Example 201a, N-[4-(4-methyl-(2R or 2S)-phenylpiperazine-1-carbonyl)-3-piperidin-1-ylphenyl]cyclopropanecarboxamide]
18 | 1260 to 6310 | CCCN1CCN(C(=O)c2ccc(NC(=O)C3CC3)cc2-n2ccc(C)c2)CC1 [Example 9, N-[3-(3-methylpyrrol-1-yl)-4-(4-propylpiperazine-1-carbonyl)phenyl] Cyclopropanecarboxamide]
19 | ≤ 50.1 | CN1CCN(C(=O)c2ccc(NC(=O)C3CC3)cc2N2CCC3(CCC3)C2)C(c2ccccc2)C1 (single isomer, unassigned) [Example 66a, N-[3-(6-azaspiro[3.4]octan-6-yl)-4-(4-methyl-2-phenylpiperazine-1-carbonyl)phenyl]cyclopropanecarboxamide]
20 | 1260 to 6310 | Cc1nnc(-c2ccc(C(=O)N3CCN(C)CC3c3ccccc3)c(N3CCCC3)c2)o1 (racemic) [Example 123, [4-(5-methyl-1,3,4-oxadiazol-2-yl)-2-pyrrolidin-1-ylphenyl]-(4-methyl-2-phenylpiperazin-1-yl)methanone]
21 | 63.1 to 251 | O=C(Nc1ccc(C(=O)N2CCN(c3cccnc3)CC2)c(N2CCCCCC2)c1)C1CC1 [Example 51, N-(3-(azepan-1-yl)-4-(4-(pyridin-3-yl)piperazine-1-carbonyl)phenyl) Cyclopropanecarboxamide]
22 | 63.1 to 251 | O=C(c1ccc(-c2nnc(C3CC3)[nH]2)cc1N1CCCC1)N1CCC(C(F)(F)F)CC1 [Example 154]
23 | 63.1 to 251 | CCCN1CCn2c(cnc2-c2ccc(NC(=O)C3CC3)cc2N2CCCCCC2)C1 [Example 105, N-[3-(azepan-1-yl)-4-(7-propyl-6,8-dihydro-5H-imidazo[1,5-a]pyrazin-3-yl)phenyl]cyclopropanecarboxamide]
24 | 316 to 1000 | O=C(Nc1ccc(C(=O)N2CCS(=O)(=O)CC2)c(N2CC3CCC2C3)c1)C1CC1 (stereo not shown) [Example 187, N-[3-(3-azabicyclo[2.2.1]heptan-3-yl)-4-(1,1-dioxo-1,4-thiazinane-4-carbonyl)phenyl]cycloprooanecarboxamide]
25 | ≤ 50.1 | CN1CCN(C(=O)c2ccc(NC(=O)C3CC3)cc2N2CCC3(CCC3)C2)C(c2cccs2)C1 (racemic) [Example 85, N-[3-(6-azaspiro[3.4]octan-6-yl)-4-(4-methyl-2-thiophen-2-ylpiperazine-1-carbonyl)phenyl]Cyclopropanecarboxamide]
